Test results published in PubChem BioAssay AID743429 (Vanderbilt Specialized Chemistry Center, 2014).
Activity calls are given as the source filed them. How the calls were made is not given here.

Target: Metabotropic glutamate receptor 1 (Homo sapiens) (UniProt Q13255)
Experiment: mGlu1 agonist response modulation at 10 µM, profiling panel, selectivity assay for mGlu8/mGlu7 PAM project, cell-based, calcium fluorescence, agonist curve fold shift (AID 743429)
Conditions: mGlu1 cells, Fluo-4 calcium flux

Chain of Metabotropic glutamate receptor 1 (Homo sapiens) (Q13255 whole entry, looked up): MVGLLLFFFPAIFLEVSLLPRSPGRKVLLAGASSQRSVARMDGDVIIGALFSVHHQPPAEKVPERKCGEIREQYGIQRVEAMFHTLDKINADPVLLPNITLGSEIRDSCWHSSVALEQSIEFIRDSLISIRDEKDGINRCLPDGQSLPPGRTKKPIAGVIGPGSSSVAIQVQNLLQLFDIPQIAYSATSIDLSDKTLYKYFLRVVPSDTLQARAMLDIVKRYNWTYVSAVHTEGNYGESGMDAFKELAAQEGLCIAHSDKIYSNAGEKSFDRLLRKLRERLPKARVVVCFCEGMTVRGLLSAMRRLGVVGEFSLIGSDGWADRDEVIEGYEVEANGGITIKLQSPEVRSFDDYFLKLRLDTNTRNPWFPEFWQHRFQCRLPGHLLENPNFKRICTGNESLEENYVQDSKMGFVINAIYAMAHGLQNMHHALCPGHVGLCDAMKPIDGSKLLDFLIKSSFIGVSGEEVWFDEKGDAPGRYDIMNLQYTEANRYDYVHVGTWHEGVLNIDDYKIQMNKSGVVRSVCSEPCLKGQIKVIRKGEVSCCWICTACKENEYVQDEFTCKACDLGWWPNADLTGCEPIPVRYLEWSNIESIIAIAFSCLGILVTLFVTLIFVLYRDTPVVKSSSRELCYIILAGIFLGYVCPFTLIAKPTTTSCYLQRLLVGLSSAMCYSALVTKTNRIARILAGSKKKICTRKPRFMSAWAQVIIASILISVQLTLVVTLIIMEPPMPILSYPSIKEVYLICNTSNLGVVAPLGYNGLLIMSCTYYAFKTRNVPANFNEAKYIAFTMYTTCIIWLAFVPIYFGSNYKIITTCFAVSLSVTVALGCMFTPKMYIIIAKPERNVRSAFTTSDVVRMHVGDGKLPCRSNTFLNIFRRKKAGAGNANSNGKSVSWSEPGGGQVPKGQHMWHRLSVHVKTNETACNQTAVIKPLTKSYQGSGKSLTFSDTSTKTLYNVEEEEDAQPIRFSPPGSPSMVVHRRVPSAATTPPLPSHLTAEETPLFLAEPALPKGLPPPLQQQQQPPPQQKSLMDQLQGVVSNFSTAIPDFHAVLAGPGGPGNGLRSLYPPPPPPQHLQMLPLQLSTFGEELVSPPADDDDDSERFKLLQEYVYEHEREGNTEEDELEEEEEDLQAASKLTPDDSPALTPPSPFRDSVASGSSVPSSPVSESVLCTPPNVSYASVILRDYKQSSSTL

fold shift: 1.04 (inactive)
Structure (SMILES): COC(=O)c1ccc(-n2c(C)cc(C(=O)CSc3ccc(NC(C)=O)cc3)c2C)cc1
